Data set [1] can be described thus: The drug is tested on Eubacterium biforme strain: DSM3989 for biotransformation. The drug concentrations were measured before and after a 12-h incubation by liquid-chromatography-coupled mass spectrometry (LC–MS). Conditions: holdemanella biformis, 2 µM.
A short description of data set [2]: The drug is tested on Dorea formicigenerans strain: ATCC27755 for biotransformation. The drug concentrations were measured before and after a 12-h incubation by liquid-chromatography-coupled mass spectrometry (LC–MS). Conditions: 2 µM.
A short description of data set [3]: The drug is tested on Bacteroides fragilis strain: T(B)9 for biotransformation. The drug concentrations were measured before and after a 12-h incubation by liquid-chromatography-coupled mass spectrometry (LC–MS). To be noted: 2 µM.
The nature of data set [4]: The drug is tested on Eggerthella lenta strain: ATCC25559 for biotransformation. The drug concentrations were measured before and after a 12-h incubation by liquid-chromatography-coupled mass spectrometry (LC–MS). To be noted: 2 µM.
Data set [5] in a line: The drug is tested on Clostridium spiroforme strain: DSM1552 for biotransformation. The drug concentrations were measured before and after a 12-h incubation by liquid-chromatography-coupled mass spectrometry (LC–MS). Conditions: thomasclavelia spiroformis, 2 µM.
The nature of data set [6]: The drug is tested on Providencia stuartii strain: ATCC25827 for biotransformation. The drug concentrations were measured before and after a 12-h incubation by liquid-chromatography-coupled mass spectrometry (LC–MS). Conditions: 2 µM.
The conditions of data set [7]: victivallis vadensis, 12 h, 2 µM.
Description: The drug is tested on Victivallis vadensis strain: ATCC BAA-548 for biotransformation. The drug concentrations were measured before and after a 12-h incubation by liquid-chromatography-coupled mass spectrometry (LC–MS)
Data set [8] is described as follows: The drug is tested on Bacteroides cellulosilyticus strain: DSM14838 for biotransformation. The drug concentrations were measured before and after a 12-h incubation by liquid-chromatography-coupled mass spectrometry (LC–MS). To be noted: 2 µM.
Data set [9] can be described thus: The drug is tested on Clostridium hathewayi strain: DSM13479 for biotransformation. The drug concentrations were measured before and after a 12-h incubation by liquid-chromatography-coupled mass spectrometry (LC–MS). To be noted: hungatella hathewayi, 2 µM.
The conditions of data set [10]: parabacteroides distasonis, 12 h, 2 µM.
Description: The drug is tested on Parabacteroides distasonis strain: ATCC8503 for biotransformation. The drug concentrations were measured before and after a 12-h incubation by liquid-chromatography-coupled mass spectrometry (LC–MS)
The conditions of data set [11]: clostridioides difficile, 12 h, 2 µM.
Description: The drug is tested on Clostridium difficile strain: 120 for biotransformation. The drug concentrations were measured before and after a 12-h incubation by liquid-chromatography-coupled mass spectrometry (LC–MS)
Data set [12] can be described thus: The drug is tested on Clostridium symbiosum strain: ATCC14940 for biotransformation. The drug concentrations were measured before and after a 12-h incubation by liquid-chromatography-coupled mass spectrometry (LC–MS). Conditions: 2 µM.
The target in the next data set is T1, Diguanylate cyclase (Collinsella aerofaciens, UniProt A4EB91).
T1 sequence (A4EB91 whole entry): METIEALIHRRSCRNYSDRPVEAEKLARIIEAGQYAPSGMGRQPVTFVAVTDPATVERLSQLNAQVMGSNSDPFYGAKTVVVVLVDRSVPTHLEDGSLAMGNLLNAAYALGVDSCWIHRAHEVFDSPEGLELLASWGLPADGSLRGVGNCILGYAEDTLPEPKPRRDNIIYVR
Kind of data set: (§1) The drug is tested on Collinsella aerofaciens strain: ATCC25986 for biotransformation. The drug concentrations were measured before and after a 12-h incubation by liquid-chromatography-coupled mass spectrometry (LC–MS). The format is ADME. Also noted: dose 2 uM. Conditions: 2 µM.

Data set [13] has as its target T2, GDSL-like protein (Collinsella aerofaciens, UniProt A4E8S4).
T2 sequence (A4E8S4 whole entry): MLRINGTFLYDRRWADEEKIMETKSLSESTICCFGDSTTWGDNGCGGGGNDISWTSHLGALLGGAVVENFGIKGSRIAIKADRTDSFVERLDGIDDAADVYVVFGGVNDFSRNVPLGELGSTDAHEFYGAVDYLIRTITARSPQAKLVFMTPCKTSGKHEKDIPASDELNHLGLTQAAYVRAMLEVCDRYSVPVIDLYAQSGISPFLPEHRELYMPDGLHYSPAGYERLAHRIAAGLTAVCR
The description is as §1. In kind it is ADME. Details: dose 2 uM. To be noted: 2 µM.

Another data set addresses T3, Flavodoxin (Collinsella aerofaciens, UniProt A4ED08).
T3 sequence (A4ED08 whole entry): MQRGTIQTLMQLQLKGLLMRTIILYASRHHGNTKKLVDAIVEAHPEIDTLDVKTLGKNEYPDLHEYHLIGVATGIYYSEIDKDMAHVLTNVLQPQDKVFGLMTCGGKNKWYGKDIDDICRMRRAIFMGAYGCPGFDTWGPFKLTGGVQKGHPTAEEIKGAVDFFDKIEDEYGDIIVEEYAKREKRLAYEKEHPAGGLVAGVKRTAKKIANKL
Described as §1. In kind it is ADME. Details: dose 2 uM. Conditions: 2 µM.

Data set [14] deals with T4, GDSL-like protein (Collinsella aerofaciens, UniProt A4E7D0).
T4 sequence (A4E7D0 whole entry): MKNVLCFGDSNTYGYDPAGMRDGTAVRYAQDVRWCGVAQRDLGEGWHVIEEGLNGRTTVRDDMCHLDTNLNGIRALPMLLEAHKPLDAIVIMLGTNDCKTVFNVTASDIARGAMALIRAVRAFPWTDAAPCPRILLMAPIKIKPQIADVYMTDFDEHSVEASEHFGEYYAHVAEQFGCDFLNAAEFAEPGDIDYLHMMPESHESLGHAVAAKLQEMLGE
The data set is described as §1. In kind it is ADME. Also noted: dose 2 uM. Conditions: 2 µM.

In data set [15] the target is T5, Pyridine nucleotide-disulfide oxidoreductase (Collinsella aerofaciens, UniProt A4EBM5).
T5 sequence (A4EBM5 whole entry): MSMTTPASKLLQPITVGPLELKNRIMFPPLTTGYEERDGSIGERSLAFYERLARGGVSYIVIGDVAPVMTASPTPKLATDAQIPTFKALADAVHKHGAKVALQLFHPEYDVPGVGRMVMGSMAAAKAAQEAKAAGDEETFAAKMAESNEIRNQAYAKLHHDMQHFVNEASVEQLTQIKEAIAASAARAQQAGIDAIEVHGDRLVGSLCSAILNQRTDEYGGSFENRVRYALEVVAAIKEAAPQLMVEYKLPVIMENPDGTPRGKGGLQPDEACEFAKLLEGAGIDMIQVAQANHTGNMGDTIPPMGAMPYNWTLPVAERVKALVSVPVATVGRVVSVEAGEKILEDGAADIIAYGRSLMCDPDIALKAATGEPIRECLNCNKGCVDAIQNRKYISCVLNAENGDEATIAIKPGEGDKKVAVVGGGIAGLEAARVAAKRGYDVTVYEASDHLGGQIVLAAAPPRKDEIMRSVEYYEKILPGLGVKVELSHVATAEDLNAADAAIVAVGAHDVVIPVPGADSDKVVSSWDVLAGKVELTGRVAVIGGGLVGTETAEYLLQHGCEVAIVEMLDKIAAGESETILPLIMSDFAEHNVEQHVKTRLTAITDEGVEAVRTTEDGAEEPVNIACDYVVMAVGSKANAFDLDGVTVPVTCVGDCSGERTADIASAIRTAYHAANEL
The description is as §1. The format is ADME. Details: dose 2 uM. Conditions: 2 µM.

Turning to `C#C[C@]1(OC(C)=O)CC[C@H]2[C@@H]3CCC4=C/C(=N/O)CC[C@@H]4[C@H]3CC[C@@]21CC` [NORGESTIMATE], the “Bacterial Biotransformation” value in data set [1] is on record as “Compound metabolized”; in data set [2], “Compound NOT metabolized”; in data set [3] it was “Compound NOT metabolized”; in [4], “Compound metabolized”; in data set [5], “Compound NOT metabolized”; in data set [6], “Compound NOT metabolized”. Moreover, the “Bacterial Biotransformation” value in data set [7], in data set [8] and in data set [9] was “Compound NOT metabolized” each time.
For `COC(=O)Nc1nc2ccc(C(=O)c3ccccc3)cc2[nH]1` [MEBENDAZOLE], the “Bacterial Biotransformation” value in data set [1] was “Compound NOT metabolized”; in [2] it was “Compound NOT metabolized”; in data set [3] it was “Compound metabolized”; in data set [5], “Compound NOT metabolized”; in [10] it was “Compound metabolized”; in data set [7] it was “Compound NOT metabolized”. The “Bacterial Biotransformation” value in [11], in data set [8], in data set [9] and in [12] was “Compound NOT metabolized” each time.
With `C#C[C@]1(O)CC[C@H]2[C@@H]3CCC4=CC(=O)CC[C@@H]4[C@H]3CC[C@@]21CC` [LEVONORGESTREL], the “Bacterial Biotransformation” value (at Diguanylate cyclase; at GDSL-like protein [13]; at Flavodoxin; at GDSL-like protein [14]; in data set [15]; in data set [2]) was “Compound NOT metabolized” in each case. For the same compound, the “Bacterial Biotransformation” value in [4] is on record as “Compound NOT metabolized”; in data set [6], “Compound NOT metabolized”; in data set [10], “Compound metabolized”; in data set [8], “Compound metabolized”; in data set [12], “Compound NOT metabolized”.
Take `CNCC[C@H](Oc1cccc2ccccc12)c1cccs1` [DULOXETINE]: the “Bacterial Biotransformation” value in data set [1] is on record as “Compound NOT metabolized”; in data set [2], “Compound NOT metabolized”; in data set [3], “Compound metabolized”; in data set [4] it was “Compound NOT metabolized”; in data set [5] it was “Compound NOT metabolized”; in data set [10] it was “Compound NOT metabolized”. The “Bacterial Biotransformation” value in data set [7] is on record as “Compound NOT metabolized”; in data set [11], “Compound metabolized”; in [9], “Compound NOT metabolized”; in [12], “Compound NOT metabolized”.
Consider `CC(C)(C(=O)O)c1ccc(C(O)CCCN2CCC(C(O)(c3ccccc3)c3ccccc3)CC2)cc1` (configuration not stated) [FEXOFENADINE], for which the “Bacterial Biotransformation” value in data set [1], in [2], in [3], in data set [6], in [11] and in [8] was “Compound NOT metabolized” in each case. Further, the “Bacterial Biotransformation” value in data set [12] is reported as “Compound NOT metabolized”.
For the compound `O=C(CCCN1CCC(O)(c2ccc(Cl)cc2)CC1)c1ccc(F)cc1` [HALOPERIDOL], the “Bacterial Biotransformation” value in [1], in [2], in data set [5], in data set [6], in data set [11] and in data set [9] was “Compound NOT metabolized” each time. Also, the “Bacterial Biotransformation” value in [12] is “Compound NOT metabolized”.
Take `CC1Cc2ccccc2N1NC(=O)c1ccc(Cl)c(S(N)(=O)=O)c1` (configuration not stated) [INDAPAMIDE]: the “Bacterial Biotransformation” value in [2], in data set [5], in data set [10], in data set [7], in data set [11] and in data set [9] was “Compound NOT metabolized” throughout.
`COc1ccc2cc([C@H](C)C(=O)O)ccc2c1` [NAPROXEN]: the “Bacterial Biotransformation” value in data set [2], in data set [3], in data set [4], in [5], in data set [6] and in [10] was “Compound NOT metabolized” in each case. Besides, the “Bacterial Biotransformation” value in data set [7], in data set [11], in data set [8], in data set [9] and in data set [12] was “Compound NOT metabolized” in each case.
Take `CN1[C@@H]2CC[C@H]1C[C@@H](OC(=O)C(CO)c1ccccc1)C2` (some centres not stated) [ATROPINE]: the “Bacterial Biotransformation” value in data set [2], in data set [3] and in [4] was “Compound NOT metabolized” throughout.
`Cc1ccc(NC(=O)c2ccc(CN3CCN(C)CC3)cc2)cc1Nc1nccc(-c2cccnc2)n1` [IMATINIB]: the “Bacterial Biotransformation” value in data set [1], in [2], in [3], in data set [4], in data set [5] and in [6] was “Compound NOT metabolized” each time. Moreover, the “Bacterial Biotransformation” value in data set [10] and in data set [8] was “Compound NOT metabolized” each time.

(Values after ChEMBL document CHEMBL5303573, “Mapping human microbiome drug metabolism by gut bacteria and their genes” (Nature, 2019).)
